How the values were obtained:
[1] = system: c-myb:GFP; assay: c-myb:GFP zebrafish blastomere embryo culture chemical screen; type: cell-based; details: approximately 30 μM, 2 days
Method: The inventors have developed an embryo culture system in which embryos bearing a c-myb:GFP transgenic reporter were dissociated during sphere stage at 4 hours post fertilization (hpf), and cultured in gelatin-coated 384 well plates with chemicals for 2 days until imaging for fluorescent reporter activity (FIG. 1). This fluorescent transgene is expressed in a similar pattern to the endogenous gene. […] This transgene responds to inducers of hematopoiesis, as myb is a marker of hematopoietic stem cells (HSCs).
The image analysis software (ImageJ and MatLab) was used to identify hits that downregulate c-myb:GFP zebrafish embryo cultures by a z-score less than […] and more than 70% downregulation. Hits were assessed by eye and scored for morphology. Toxic compounds that caused poor embryoid body (EB) formation were assessed a 4.
Zebrafish cell culture: Zebrafish embryo cultures were adapted from Xu (2013). Dissociated blastomere cells were grown in medium composed of 85% LDF medium, 5% heat inactivated FBS, and 10% zebrafish day 1 embryo extract. LDF medium contains 50% Leibowitz's L-15 (Invitrogen), 20% DMEM (Invitrogen), and 30% DMEM/F-12 (Invitrogen), supplemented with 0.018% sodium bicarbonate, 15 mM HEPES (Invitrogen), 1% L-Glutamine (Invitrogen), 10 nM sodium selenite (Sigma-Aldrich), 1% N2 (Invitrogen), 2% B27 (Invitrogen), 1% Penicillin-Streptomycin (Invitrogen), and 0.2% Primocin (InvivoGen).
Screening procedures: Two 384-well plates were coated with 0.1% gelatin for each chemical library plate. Males of the c-myb:GFP transgenic line were set up overnight with casper females and kept separated until morning when they were mixed for mating. Embryos were washed twice with E3 embryo water and treated with pronase to remove chorions. Dechorionated embryos were washed with E3 embryo water and collected into tubes containing media. Embryos were disassociated by shaking ˜10 times and were filtered through a 40 μm nylon mesh filter. Resulting single cells were diluted with medium and aliquoted 30 μl per well into the 384-well plates at approximately 2 embryo equivalents per well. Chemicals were dispensed immediately afterwards with an Agilent Bravo robot. Chemicals from the libraries were diluted 300 times with LDF medium and were aliquoted 10 μl per well for a final concentration of approximately 33 μM. […] Cells were cultured in a 28° C. incubator with 5% CO2. Two days later, cells were imaged by a Yokogawa Cell Voyager 7000 imager. Images were analyzed by ImageJ and MatLab and confirmed by eye. […]
Culture of dissociated blastomere cells: Stage-matched zebrafish blastomeres were dissociated at 4 hpf and grown in medium composed of 85% LDF medium, 5% FBS, and 10% embryo extract. LDF medium contains 50% Leibowitz's L-15 (Invitrogen), 20% DMEM (Invitrogen), and 30% DMEM/F-12 (Invitrogen), supplemented with 2% B27 (Gibco), 15 mM HEPES (Gibco), 1% L-glutamine (Gibco), 1% N2 (Gibco), 10 nM sodium selenite (Sigma), 100 ug/mL piperacillin (Sigma), 10 ug/mL ciprofloxacin (GenHunter), and 0.018% sodium bicarbonate (Gibco). Embryo extract was made by homogenizing 24 hpf wildtype AB embryos in HBSS (Gibco).

[2] = system: c-myb; assay: U937 time course qPCR of c-myb; type: cell-based, human; details: 1 μM; 6, 24 and 48 hours
Method: Cell culture: U937 cells were grown in RPMI 1640 (Life Technologies), 10% heat inactivated FBS, and 1% Penicillin-Streptomycin (Invitrogen). CellTiter-Glo Luminescent Cell Viability Assay (Promega) was performed as per manufacturer's instructions. Cell viability was assessed at day 2.
(§1) Quantitative PCR: Total RNA from cells was extracted using Qiagen RNeasy Mini Kit, and random primed cDNA was generated (Invitrogen, SuperScript III First-Strand Synthesis System). The SsoFast EvaGreen (Biorad) method was used to quantify cDNAs of interest, which are represented as the fold change in transcript level. The amount of cDNA starting material for each sample was normalized in relation to species-specific β-actin expression for zebrafish samples, and both gapdh and β-actin expression for human samples. The primer sequences used were zebrafish myb: forward, 5′-[…]-3′ (SEQ ID No:1), reverse, 5′-[…]-3′ (SEQ ID No:2); zebrafish β-actin: forward, 5′-[…]-3′ (SEQ ID No:3), reverse, 5′-[…]-3′ (SEQ ID No:4); human myb: forward, 5′-[…]-3′ (SEQ ID No:5), reverse, 5′-[…]-3′ (SEQ ID No:6); human gapdh: forward, 5′-[…]-3′ (SEQ ID No:7), reverse, 5′-[…]-3′ (SEQ ID No:8); human β-actin: forward, 5′-[…]-3′ (SEQ ID No:9), reverse, 5′-[…]-3′ (SEQ ID No:10).
U937 time course quantitative PCR analysis: U937 cells were plated with 1 μM retinoic acid agonists for the duration indicated. Cells were then collected and RNA was isolated using the RNeasy Plus Mini Kit (Qiagen) as per the manufacturer's instructions. Further processing was done as described in the section above. Samples were normalized to β-actin gene. Human primers used (forward and reverse respectively): actin, 5′-[…]-3′ (SEQ ID No:9) and 5′-[…]-3′ (SEQ ID No:10); c-myb, 5′-[…]-3′ (SEQ ID No:5) and 5′-[…]-3′ (SEQ ID No:6).

[3] = system: c-myb; assay: qPCR of sorted c-myb:GFP zebrafish embryo cells; type: cell-based; details: sorted c-myb:GFP cells from 72 hpf embryos, 1 μM, 6 hours
Method: RA dose response experiments were plated similarly in LDF medium with the appropriate RA concentration. Sorted c-myb:GFP+ cells were collected from 72 hpf transgenic embryos that were homogenized: embryos were finely chopped and dissociated using Liberase (Roche), cell suspensions were filtered, and 58,000 GFP+ live cells were collected using a FACS Aria cell sorter (BD Biosciences). Cells were cultured for 6 hours in LDF medium, and then collected for qPCR.
as §1
Zebrafish quantitative PCR analysis: Stage-matched 72 hpf c-myb:GFP transgenic embryos were finely chopped and dissociated using Liberase (Roche). GFP+ cells were collected using a FACS Aria cell sorter (BD Biosciences). Sorted cells were resuspended in zebrafish blastomere media and plated with 1 μM retinoic acid agonists for 6 hours. Cells were then collected and RNA was isolated using the RNeasy Micro Plus Kit (Qiagen) as per the manufacturer's instructions. cDNA was synthesized using the SuperScript III Kit (Life Technologies). Quantitative PCR was performed in triplicate on a BioRad iQ5 real-time PCR machine using Ssofast EvaGreen Supermix (BioRad). Samples were normalized to β-actin gene. Zebrafish primers used (forward and reverse respectively): actin, 5′-[…]-3′ (SEQ ID No:3) and 5′-[…] -3′ (SEQ ID No:4); c-myb, 5′-[…]-3′ (SEQ ID No:1) and 5′-[…]-3′ (SEQ ID No:2); mpx, 5′-[…]-3′ (SEQ ID No:11) and 5′-[…]-3′ (SEQ ID No:12); GFP, 5′-[…]-3′ (SEQ ID No:13) and 5′-[…]-3′ (SEQ ID No:14).

[4] = system: ACC; details: Phase II trials in ACC; cited from earlier work
[5] = Table 2, c-myb:GFP embryo cultures, average across two plates
[6] = Table 2, c-myb:GFP embryo cultures
[7] = Table 3, GFP signal in blastomere embryo culture screen

SMILES: COc1ccc2c(c1)c(CC(=O)O)c(C)n2Cc1ccc(F)cc1 [1-(4-Fluorobenzyl)-5-methoxy-2-methylindole-3-acetic acid]
- Z-Score [1, 5]: −1.726

SMILES: Cc1nsc(NC(=O)N2CCCC(Cc3ccc(F)cc3)C2)n1 (stereo not drawn) [3-(4-fluorobenzyl)-N-(3-methyl-1,2,4-thiadiazol-5-yl)piperidine-1-carboxamide]
- Z-Score [1, 5]: −3.287

SMILES: Cc1nn(C)cc1-c1ccnc(NC(CC(C)(C)C)c2cccnc2)n1 (stereo not drawn) [4-(1,3-dimethyl-1H-pyrazol-4-yl)-N-(3,3-dimethyl-1-pyridin-3-ylbutyl)pyrimidin-2-amine]
- Z-Score [1, 5]: −2.29

SMILES: COc1ccc(N2CCN(C(=O)Nc3nc(C)ns3)CC2(C)C)cc1 [4-(4-methoxyphenyl)-3,3-dimethyl-N-(3-methyl-1,2,4-thiadiazol-5-yl)piperazine-1-carboxamide]
- Z-Score [1, 5]: −2.357

SMILES: Cc1nsc(NC(=O)N2CCC(Sc3ccccc3C)CC2)n1 [4-[(2-methylphenyl)thio]-N-(3-methyl-1,2,4-thiadiazol-5-yl)piperidine-1-carboxamide]
- Z-Score [1, 5]: −2.228

SMILES: CC1=C(/C=C/C(C)=C\C=C\C(C)=C\C(=O)O)C(C)(C)CCC1 [9-cis retinoic acid]
- myb levels in U937 by qPCR [2]: significantly downregulate
- endogenous myb levels by qPCR [3]: significantly downregulate
- Fold Change [1, 6]: −0.9153
- Z-Score [1, 5]: −1.566
- Fold Change [1, 7]: −0.9153
- Z-Score [1, 7]: −1.566

SMILES: C=C(C)[C@H]1CC=C(C(=O)O)CC1 [(−)-Perillic acid]
- Fold Change [1, 6]: −0.7327
- Z-Score [1, 5]: −1.848

SMILES: CCCCOCCOc1nc(-c2ccc(C(=O)O)c(F)c2)sc1C [AC 261066, 4-[4-(2-Butoxyethoxy-)-5-methyl-2-thiazolyl]-2-fluorobenzoic acid]
- Fold Change [1, 6]: −0.7734
- Z-Score [1, 5]: −1.697
- Fold Change [1, 7]: −0.7734
- Z-Score [1, 7]: −1.697

SMILES: CC1(C)CCC(C)(C)c2cc(C(=O)Nc3ccc(C(=O)O)cc3)ccc21 [AM-580, 4-[(5,6,7,8-Tetrahydro-5,5,8,8-tetramethyl-2-naphthalenyl)carboxamido]benzoic acid]
- Fold Change [1, 6]: −0.9547
- Z-Score [1, 5]: −1.631
- Fold Change [1, 7]: −0.9547
- Z-Score [1, 7]: −1.631

SMILES: CC(C)C[C@H](NC(=O)[C@H](Cc1ccccc1)NC(=O)c1cnccn1)B(O)O [Bortezomib]
- Objective Response Rate [4]: 0%

SMILES: O=c1c2ccccc2[nH]c(=S)n1CCN1CCC(=C(c2ccc(F)cc2)c2ccc(F)cc2)CC1 [Diacylglycerol Kinase Inhibitor II]
- Z-Score [1, 5]: −1.493

SMILES: CO[C@H]1C[C@@H]2CC[C@@H](C)[C@@](O)(O2)C(=O)C(=O)N2CCCC[C@H]2C(=O)O[C@H]([C@H](C)C[C@@H]2CC[C@@H](OCCO)[C@H](OC)C2)CC(=O)[C@H](C)/C=C(\C)[C@@H](O)[C@@H](OC)C(=O)[C@H](C)C[C@H](C)/C=C/C=C/C=C/1C [Everolimus]
- Objective Response Rate [4]: 0%

SMILES: O=C(c1ccc(OCCN2CCCCC2)cc1)c1c(-c2ccc(O)cc2)sc2cc(O)ccc12 [Evista]
- Z-Score [1, 5]: −3.318

SMILES: CC1(C)O[C@@H]2C[C@H]3[C@@H]4C[C@H](F)C5=CC(=O)C=C[C@]5(C)[C@H]4[C@@H](O)C[C@]3(C)[C@]2(C(=O)CO)O1 [FluniSOLIDe]
- Z-Score [1, 5]: −3.085

SMILES: COc1cc2ncnc(Nc3ccc(F)c(Cl)c3)c2cc1OCCCN1CCOCC1 [Gefitinib]
- Objective Response Rate [4]: 0%

SMILES: Cc1ccc(NC(=O)c2ccc(CN3CCN(C)CC3)cc2)cc1Nc1nccc(-c2cccnc2)n1 [Imatinib]
- Objective Response Rate [4]: 0%

SMILES: Cl.FC(F)(F)c1cc(CO[C@H]2CCCN[C@H]2c2ccccc2)cc(C(F)(F)F)c1 [L-733,060 hydrochloride]
- Fold Change [1, 6]: −0.752
- Z-Score [1, 5]: −1.715

SMILES: CS(=O)(=O)CCNCc1ccc(-c2ccc3ncnc(Nc4ccc(OCc5cccc(F)c5)c(Cl)c4)c3c2)o1 [Lapatinib]
- Objective Response Rate [4]: 0%

SMILES: Cc1c(C(C)Nc2ncnc3sccc23)cnn1C (stereo not drawn) [N-[1-(1,5-dimethyl-1H-pyrazol-4-yl)ethyl]thieno[2,3-d]pyrimidin-4-amine]
- Z-Score [1, 5]: −2.83

SMILES: O=C(Cc1cccc(O)c1)NCc1cc2cc(Cl)ccc2[nH]1 [N-[(5-chloro-1H-indol-2-yl)methyl]-2-(3-hydroxyphenyl)acetamide]
- Z-Score [1, 5]: −3.297

SMILES: Nc1nc2ccc(OC(F)(F)F)cc2s1 [Riluzole]
- Z-Score [1, 5]: −6.521

SMILES: CNC(=O)c1cc(Oc2ccc(NC(=O)Nc3ccc(Cl)c(C(F)(F)F)c3)cc2)ccn1 [Sorafenib]
- Objective Response Rate [4]: 11%

SMILES: O=C(O[C@H]1[C@H](Oc2ccccc2COC(=O)C2(O)C=CCCC2=O)O[C@H](CO)[C@@H](O)[C@@H]1O)c1ccccc1 (stereo partly drawn) [TREMULACIN]
- Z-Score [1, 5]: −3.9299

SMILES: C/C(=C\c1ccc(C(=O)O)cc1)c1ccc2c(c1)C(C)(C)CCC2(C)C [TTNPB, 4-[(E)-2-(5,6,7,8-Tetrahydro-5,5,8,8-tetramethyl-2-naphthalenyl)-1-propenyl]benzoic acid]
- Z-Score [1, 5]: −1.6339
- Z-Score [1, 7]: −1.634

SMILES: O=C(CCCCCCC(=O)Nc1ccccc1)NO [Vorinostat]
- Objective Response Rate [4]: 3%
